Patent US7271160B2, “Methods and compositions for degradation and/or inhibition of HER-family tyrosine kinases” (Sloan-Kettering Institute for Cancer Research, priority 1999, dated 2007)
“Also recorded” adds a separate entry of the source.

Columns and labels:
HER2 [1] = experiment: Induction of HER2 degradation in MCF-7 cells (immunoblotting); type: cell-based, human; settings: for IC50: 24-hr treatment, amount of drug needed to degrade 50% of the protein vs control, average of three experiments, read-out: IC50 (HER-2); for specificity/selectivity for HER-2 over Raf-1: compared to GM
Protocol: (§1) After exposure, cells were washed twice with ice-cold phosphate-buffered saline (PBS), collected by scraping and transferred into microcentrifuge tubes. For immunoblotting (HER2, Raf-1, ER), cells were lysed with SDS lysis buffer (50 mM Tris-HCl, pH 7.5, 2% SDS, 10% glycerol, and 1 mM DTT), boiled for 10 min, and sonicated briefly; for immanoprecipitation (IGF-IR), cells were lysed with NP40 lysis buffer (50 mM Tris-HCl, pH 7.5, 1% Nonidet P-40, 150 mM NaCl, 1 mM Na3VO4, 40 mM NaF, 1 mM phenylmethylsulfonyl fluoride (PMSF) and 10 μg/ml each of aprotinin, leupeptin and soybean trypsin inhibitor) for 20 min at 4° C. Cell lysates were cleared by centrifuging at 14,000×g for 15 min at 4° C. in a microcentrifuge; the supernatants were collected as the experimental samples. Protein concentration in each sample was determined using the BCA kit (Pierce) according to the manufacture's instructions. For detecting IGF-IR, samples were immunoprecipitated with anti-IGF-IR antibody. Immunocomplexes were collected on protein A-Sepharose beads (Pharmacia), washed three tires with the lysis buffer. Samples were subjected to SDS-PAGE, electrotransferred to nitrocellulose membranes, detected using the ECL kit (Amersham) according to the manufacturer's protocol, and quantitated using the Gel Doc 1000 (Bio-Rad).
(§2) Numerical results for IC50 for HER-2, Raf-1 and cell growth are summarized in Table 1, with each number representing the average of three different experiments.

MCF-7 cells = experiment: MCF-7 cell growth inhibition (cell counting); type: cell-based; settings: Homo sapiens, MCF7, 96 h; MCF-7 cells treated for four days; 50% growth inhibition vs vehicle; average of three experiments; read-out: IC50 (growth inh.)
Protocol: (§3) The human breast cancer cell lines MCF-7 and SKBR-3 were obtained from ATCC (Rockville, Md.), and maintained in DME/F12 (1:1) supplemented with 10% heat-inactivated fetal bovine serum (Gemini Bioproducts), 2 mM glutamine, and 50 units/ml each of penicillin and streptomycin, in a humidified 5% CO2/air atmosphere at 37° C.
For cell growth experiments, cells were plated in 6-well tissue-culture plates (Corning) at 20,000 cells/well. Two days after plating, cells were treated with different concentrations of drugs or the vehicle DMSO (0.1%). MCF-7 cells were treated for four days; medium with the appropriate drug or vehicle was changed every 2 days; cells were trypsinized, collected and counted on a Coulter counter; IC50 for cell growth is designated as the amount of each drug needed to inhibit MCF-7 growth by 50% compared to the control vehicle.

Raf-1 [2] = experiment: Induction of Raf-1 degradation in MCF-7 cells (immunoblotting); type: cell-based, human; settings: for IC50: 24-hr treatment, amount of drug needed to degrade 50% of the protein vs control, average of three experiments
Protocol: as §1, §2

Raf-1 [3] = experiment: Immunofluorescence of Raf-1 in MCF-7 cells; type: cell-based, human; settings: vs DMSO control
Protocol: (§4) MCF-7 cells were grown and treated on fibronectin-coated coverslips placed in multiwell plates. Cells were fixed for 20 min at −20° C. in 100% methanol, rehydrated in PBS for 10 min at room temperature and blocked for 30 min at 37° C. in a blocking solution consisting of 2% bovine serum albumin (BSA), 10% normal goat serum and 0.05% Tween-20 in PBS. HER2 and Raf-1 were immunodetected with antibodies from Santa Cruz (SC284 and SC133, respectively); IGF-IR, an antibody from Calbiochem Oncogene Science (Abl). Slides were incubated with a […] of the primary antibody in blocking buffer for 1 hr at room temperature, followed by an incubation with Alexa 546-coupled goat anti-rabbit lgG secondary antibody (A-11010, Molecular Probes) at a […] in blocking buffer, or fluoresceine isothiocyanate-coupled goat anti-mouse IgG (F276, Molecular Probes) at a […]. […] DNA was stained with bisbenzimide, which was included in the secondary antibody solution (3 μg/ml final concentration. Coverslips were mounted on glass slides using Vectashield (Vector), to prevent quenching of fluorescence. Immunofluorescence was detected with a Zeiss epifluorescence microscope, at 40× and 100×, using appropriate filters for detection of rhodamine and bisbenzimide, and via confocal microscopy.

estrogen receptor = experiment: Estrogen receptor level in MCF-7 cells (immunoblotting time course); type: cell-based, human; settings: 1 μM, 3 to 24 hours
IGF-IR = experiment: Immunofluorescence of IGF-IR in MCF-7 cells; type: cell-based, human; settings: vs DMSO control
Protocol: as §4

SKBR3 = SKBR3 breast cancer cell sensitivity; type: cell-based, human; settings: SKBR3, HER2 highly overexpressed
Protocol: as §3

32D cells = experiment: 32D cell growth (HER-kinase negative cells, daily cell counts); type: cell-based, murine; settings: 32D cells lacking HER-kinases; various concentrations, counted daily for three days
Protocol: Murine hematopoietic cell line 32D, which lacks HER-kinases, was kindly provided by Dr Yosef Yarden (The Weizmann Institute of Science, Israel), and maintained in RPMI-1640 supplemented with 10% heat-inactivated FBS, 2 nm interleukin 3 (R&D systems), 2 mM glutamine, and 50 units/ml each of penicillin and streptomycin.

IGF-I receptor = IGF-I receptor level in MCF-7 cells (immunoprecipitation/immunoblotting time course); type: cell-based, human; settings: 1 μM, 3 to 24 hours
Protocol: as §1, with “For immunoblotting (HER2, Raf-1, ER), cells were lysed with SDS lysis buffer (50 mM Tris-HCl, pH 7.5, 2% SDS, 10% glycerol, and 1 mM DTT), boiled for 10 min, and sonicated briefly; for immanoprecipitation (IGF-IR), cells were lysed with NP40 lysis buffer (50 mM Tris-HCl, pH 7.5, 1% Nonidet P-40, 150 mM NaCl, 1 mM Na3VO4, 40 mM NaF, 1 mM phenylmethylsulfonyl fluoride (PMSF) and 10 μg/ml each of aprotinin, leupeptin and soybean trypsin inhibitor) for 20 min at 4° C.” left out

HER2 [4] = experiment: Immunofluorescence of HER2 in MCF-7 cells; type: cell-based, human; settings: vs DMSO control
Protocol: as §4

HER-2 and Raf-1 = experiment: Varying concentration and treatment pattern, HER-2 and Raf-1 levels (Example 3); type: cell-based

Row | SMILES | IC50 (HER2 [1]) [nM] | IC50 (MCF-7 cells) [nM] | IC50 (Raf-1 [2]) [nM] | activity against HER2 (in words) (HER2 [1]) | specificity/selectivity for HER-2 over Raf-1 (HER2 [1]) | activity against Raf-1 (in words) (Raf-1 [2]) | also measured
1 | COC1C=CC=C(C)C(=O)NC2=CC(=O)C(NCCCCCCCCCNC3=C4CC(C)CC(OC)C(O)C(C)C=C(C)C(OC(N)=O)C(OC)C=CC=C(C)C(=O)NC(=CC3=O)C4=O)=C(CC(C)CC(OC)C(O)C(C)C=C(C)C1OC(N)=O)C2=O (stereo not drawn) | 500 | 700 | 3800 | – | – | – | –
2 | COC1C=CC=C(C)C(=O)NC2=CC(=O)C(NCCCCN)=C(CC(C)CC(OC)C(O)C(C)C=C(C)C1OC(N)=O)C2=O (stereo not drawn) [ButylaminoGM] | 55 | – | – | modestly weaker than GM | not selective | modestly weaker than GM | –
3 | COC1C=CC=C(C)C(=O)NC2=CC(=O)C(NCCCCNC3=C4CC(C)CC(OC)C(O)C(C)C=C(C)C(OC(N)=O)C(OC)C=CC=C(C)C(=O)NC(=CC3=O)C4=O)=C(CC(C)CC(OC)C(O)C(C)C=C(C)C1OC(N)=O)C2=O (stereo not drawn) [GMD-4c] | 60 | 100 | 3200 | – | greatest selectivity of the compounds tested | – | anti-Raf-1 staining (immunofluorescence) (Raf-1 [3]): only observed for the anti-HER2 antibodies; Estrogen receptor levels over time (estrogen receptor): declined transiently but returned to baseline by 24 hours; anti-IGF-IR staining (immunofluorescence) (IGF-IR): only observed for the anti-HER2 antibodies; sensitivity of SKBR3 cells (SKBR3): very sensitive; HER2 / HER-kinase expression over time (HER2 [1]; 1 μM, 3 to 24 hours, Western blot and immunohistochemical analysis): reduces HER2 expression with the same kinetics; effect on growth of 32D cells (32D cells): does not appreciably affect its growth; also recorded: much less so; IGF-I receptor expression over time (IGF-I receptor): does not affect; anti-HER2 staining (immunofluorescence) (HER2 [4]): significant reduction in fluorescence levels; amount of HER-2 and Raf-1 as a function of the treatment pattern (HER-2 and Raf-1; 0.25, 0.5 and 1 μM, single or repeated treatments at 0, 3, 6, 12 hours): No significant differences; selectivity on repeated addition (HER-2 and Raf-1; high concentrations added four times in twelve hours): retained selectivity; Raf-1 expression over time (Raf-1 [2]; 1 μM, 3 to 24 hours): does not affect
4 | COC1C=CC=C(C)C(=O)NC2=CC(=O)C(NCCCCCCCNC3=C4CC(C)CC(OC)C(O)C(C)C=C(C)C(OC(N)=O)C(OC)C=CC=C(C)C(=O)NC(=CC3=O)C4=O)=C(CC(C)CC(OC)C(O)C(C)C=C(C)C1OC(N)=O)C2=O (stereo not drawn) [GMD-7c] | 70 | 600 | 500 | – | – | – | –
5 | CC(C)C(C)C [GMD-aa] | > 5000 | > 2000 | > 5000 | inactive | – | inactive | –
6 | COC1C=CC=C(C)C(=O)NC2=CC(=O)C(NCCCCCCCCCCCCNC3=C4CC(C)CC(OC)C(O)C(C)C=C(C)C(OC(N)=O)C(OC)C=CC=C(C)C(=O)NC(=CC3=O)C4=O)=C(CC(C)CC(OC)C(O)C(C)C=C(C)C1OC(N)=O)C2=O (stereo not drawn) [twelve carbon-linked compound] | 750 | 700 | 3500 | – | – | – | –
